{"source": "patent US12257367B2", "about": "“Biomaterials for biological tissue repair” (KONAN GAKUEN, priority 2019, dated 2025)", "key": {"[1]": {"test_system": "mouse myoblasts (C2C12 cells)", "assay": "Cytotoxicity test of Ac4ManNAz by WST-1 assay", "format": "cell-based", "method": "In order to examine the cytotoxicity of the synthesized Ac4ManNAz, mouse myoblasts (C2C12 cells) were used to evaluate toxicity to cells by WST-1 assay. The cells were seeded in a 96-well plate at 1×10^4 cells/well, to which a predetermined amount of Ac4ManNAz dissolved in a DMEM medium (final concentrations of 0, 0.0001, 0.001, 0.01, 0.1 and 1 mM) was added to culture the resultant in a CO2 incubator at 37° C. for one day. To each well, 10 μL of a WST-1 solution (WST-1:1-Methoxy PMS=9:1) was added to allow reaction in the CO2 incubator for 2 hours. Thereafter, absorbance was determined with a microplate reader. Cell viability was calculated from the absorbance."}, "[2]": {"test_system": "C2C12 cells", "assay": "Azide modification of cell surface by sugar metabolism of Ac4ManNAz, detected with carboxyrhodamine 110 DBCO", "format": "cell-based, mouse", "method": "C2C12 cells were cultured in a DMEM medium containing 100 μM of Ac4ManNAz for 3 days to allow biosynthesis of azide-modified sialic acid at the end of the glycan of the cell membrane protein via cell sugar metabolism reaction of Ac4ManNAz. The cultured cells were washed with PBS twice. To confirm whether an azide group was introduced, carboxyrhodamine 110 DBCO (final concentration 5 μM) was added to the medium and allowed to react in the CO2 incubator for an hour. Subsequently, the cells were washed with PBS twice, to which a live cell imaging buffer (composition of the solution: 140 mM NaCl, 2.5 mM KCl, 1.8 mM CaCl2), 1.0 mM MgCl2 and 20 mM HEPES pH 7.4) was added to observe the cells with a confocal microscope."}, "[3]": {"test_system": "mouse tissues (lung, cardiac muscle, skeletal muscle, kidney)", "assay": "Azide modification of mouse tissues by Ac4ManNAz administration and hydrogel fabrication using biological tissue", "format": "in vivo", "settings": "intraperitoneal once a day for seven days", "method": "6 mg of Ac4ManNAz was dissolved in a mixed solvent of DMSO and PBS solution (58% DMSO) to prepare a Ac4ManNAz solution. 200 μL of the resulting Ac4ManNAz solution was intraperitoneally administered to a mouse (ICR, 5 weeks old, female) once a day for seven consecutive days for azide-modification of the mouse tissues. A week later, lung, cardiac muscle, skeletal muscle and kidney of the mouse were resected. The resected tissues were allowed to react with 100 μM of carboxyrhodamine 110 DBCO for an hour, then added with a PBS solution, vortexed and left to stand still for 10 minutes. This operation was repeated for 3 times. As control, tissues resected from a mouse that was not administered with the Ac4ManNAz solution were allowed to react with carboxyrhodamine 110 DBCO for an hour. […] In order to carry out gelation reaction using mouse tissues, the Ac4ManNAz solution was administered to a mouse in the same manner as described above and lung, brain, muscle tissue, kidney, heart and liver were resected from the mouse."}}}
{"smiles": "CC(=O)OC[C@H]1OC(OC(C)=O)[C@@H](NC(=O)CN=[N+]=[N-])[C@@H](OC(C)=O)[C@@H]1OC(C)=O", "note": "(some centres unmarked) [Ac4ManNAz]", "values": [{"measurement": "amount applicable without having toxicity to cells", "setting": "[1]; WST-1", "value": "5 to 100", "unit": "µM"}, {"measurement": "cell viability", "setting": "[1]; WST-1, all concentrations (0-1 mM), one day", "value": "≥ 90", "unit": "%"}, {"measurement": "carboxyrhodamine 110-derived green fluorescence of cells", "setting": "[2]; C2C12 cells cultured with 100 μM for 3 days, confocal microscope", "value": "strong green fluorescence was observed only on the surface of the cell membrane"}, {"measurement": "concentration that allows a maximum amount of azide groups to be introduced into the cell surface (fluorescence intensity plateau)", "setting": "[2]; C2C12 cells, carboxyrhodamine 110 DBCO", "value": 100, "unit": "µM"}, {"measurement": "azide modification of tissues in living body (FITC-derived green fluorescence after bAlg-DBCO-FITC)", "setting": "[3]", "value": "green fluorescence was observed in all of the tissues"}]}
